Data: patent publication US20100093811A1 (priority 2007, published 2010)
Counter-ions that a name gives are not always drawn. Like-named read-outs stand apart in the source and are kept apart here.

Key:
[1] = test system: acute HIV infection of T-lymphoid cells; test: Assay for inhibition of HIV replication (spread assay); format: cell-based, HIV-1; details: read-out: Spread - IC95
Description: • Assay for Inhibition of HIV Replication
Assays for the inhibition of acute HIV infection of T-lymphoid cells were conducted in accordance with Vacca, J. P. et al., Proc. Natl. Acad. Sci. USA 1994, 91: 4096.

wild-type HIV-1 protease = wild-type HIV-1 protease (Human immunodeficiency virus type 1 group M subtype B, UniProt P04585); test: Assay for inhibition of microbial expressed HIV protease; format: biochemical
Summary of the method: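 Inhibition taken from HPLC (C18) product peak areas after phosphoric acid quench. Reaction: 440 micromolar Val-Ser-Gln-Asn-(betanapthyl)Ala-Pro-Ile-Val peptide, 5 pM E. coli-made protease, 1 h at 30° C, following 30 min room-temperature inhibitor preincubation in pH 5.5 acetate/NaCl/BSA buffer.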

[2] = Human immunodeficiency virus 1, T-lymphoid
[3] = wild-type HIV-1 protease expressed in E. coli, peptide substrate, pH 5.5, read-out: Enzyme Inhibition - IC50
[4] = inhibition of HIV-1 replication, 10% FBS

| Structure (SMILES) | IC95 [1, 2] [nM] | IC50 (wild-type HIV-1 protease; [3]) [nM] | IC50 (wild-type HIV-1 protease) [nM] | IC95 [1, 4] [nM] |
| --- | --- | --- | --- | --- |
| COC(=O)N[C@@H](Cc1ccccc1Cl)C(=O)N[C@@H](C)CCC[C@@H](CO)N(CC(C)C)S(=O)(=O)c1ccc(N)cc1 [Example D8, N-{(1S,5S)-5-[[(4-aminophenyl)sulfonyl](isobutyl)amino]-6-hydroxy-1-methylhexyl}-2-chloro-Nα-(methoxycarbonyl)-L-phenylalaninamide] | 46 | 0.327 | – | – |
| COC(=O)N[C@H](C(=O)N[C@@H](C)CCC[C@@H](CO)N(CC1CC1)S(=O)(=O)c1ccc(N)cc1)C(c1ccccc1)c1ccccc1 [Example G7, N-{(1S,5S)-5-[[(4-aminophenyl)sulfonyl](cyclopropylmethyl)amino]-6-hydroxy-1-methylhexyl}-Nα-(methoxycarbonyl)-β-phenyl-L-phenylalaninamide] | 15 | 0.024 | – | – |
| COC(=O)N[C@H](C(=O)N[C@@H](C)CCC[C@@H](CO)N(C)S(=O)(=O)c1ccc(N)cc1)C(c1ccccc1)c1ccccc1 [Example G4, N-{(1S,5S)-5-[[(4-aminophenyl)sulfonyl](methyl)amino]-6-hydroxy-1-methylhexyl}-Nα-(metboxycarbonyl)-β-phenyl-L-phenylalaninamide] | 41 | 0.405 | – | – |
| CC(C)N([C@H](CO)CCCC(C)(C)NC(=O)[C@@H](N)Cc1ccccc1Cl)S(=O)(=O)c1ccc(N)cc1 [Example L10, N-{(5S)-5-[[(4-aminophenyl)sulfonyl](isopropyl)amino]-6-hydroxy-1,1-dimethylhexyl}-2-chloro-L-phenylalaninamide hydrochloride] | 241 | – | 3.2 | – |
| COC(=O)N[C@H](C(=O)N[C@H](CCC[C@@H](CO)N(CCC(C)C)S(=O)(=O)c1ccc(N)cc1)C1CC1)C(c1ccc(F)cc1)c1ccc(F)cc1 [Example E7, N-{(1R,5S)-5-[[(4-aminophenyl)sulfonyl](3-methylbutyl)amino]-1-cyclopropyl-6-hydroxyhexyl}-4-fluoro-β-(4-fluorophenyl)-Nα-(methoxycarbonyl)-L-phenylalaninamide] | 39 | 0.066 | – | – |
| COC(=O)N[C@H](C(=O)N[C@H](CCC[C@@H](CO)N(CCC(C)C)S(=O)(=O)c1ccc(CO)c(F)c1)C1CC1)C(c1ccc(F)cc1)c1ccc(F)cc1 [Example E2, N-{(1R,5S)-1-cyclopropyl-5-[{[3-fluoro-4-(hydroxymethyl)phenyl]sulfonyl}(3-methylbutyl)amino]-6-hydroxyhexyl}-4-fluoro-β-(4-fluorophenyl)-Nα-(methoxycarbonyl)-L-phenylalaninamide] | 39 | 0.017 | – | – |
| COC(=O)N[C@@H](Cc1ccccc1Cl)C(=O)N[C@H](CCC[C@@H](CO)N(CCC(C)C)S(=O)(=O)c1ccc(CO)cc1)C(C)C [Example J26, 2-chloro-N-{(1R,5S)-6-hydroxy-5-[{[4-(hydroxymethyl)phenyl]sulfonyl}(3-methylbutyl)amino]-1-isopropylhexyl}-Nα-(methoxycarbonyl)-L-phenylalaninamide] | 110 | 1.33 | – | – |
| COC(=O)N[C@H](C(=O)NCCC(C)C[C@@H](CO)N(CCC(C)C)S(=O)(=O)c1ccc(C)cc1)C(c1ccccc1)c1ccccc1 (stereo partly drawn) [Example B2] | – | 0.52 | – | 368 |
| COC(=O)N[C@@H](Cc1cccc2ccccc12)C(=O)N[C@H](CCC[C@@H](CO)N(CCC(C)C)S(=O)(=O)c1ccc(N)cc1)C1CC1 [Example E9, methyl [(1S)-2-({(1R,5S)-5-[[(4-aminophenyl)sulfonyl](3-methylbutyl)amino]-1-cyclopropyl-6-hydroxyhexyl}amino)-1-(1-naphthylmethyl)-2-oxoethyl]carbamate] | 117 | 0.354 | – | – |
| CC[C@@H](CCC[C@@H](CO)N(C(C)C)S(=O)(=O)c1ccc(CO)cc1)NC(=O)[C@@H](NC(=O)OC)C(c1ccccc1)c1ccccc1 [Example G19, N-{(1S,5S)-1-ethyl-6-hydroxy-5-[{[4-(hydroxymethyl)phenyl]sulfonyl}(isopropyl)amino]hexyl}-Nα-(methoxycarbonyl)-β-phenyl-L-phenylalaninamide] | 43 | 0.076 | – | – |
| COC(=O)N[C@@H](Cc1ccccc1Cl)C(=O)N[C@@H](C)CCC[C@@H](CO)N(CC(C)C)S(=O)(=O)c1ccc(CO)cc1 [Example G2, 2-chloro-N-{(1S,5S)-6-hydroxy-5-[{[4-(hydroxymethyl)phenyl]sulfonyl}(isobutyl)amino]-1-methylhexyl}-Nα-(methoxycarbonyl)-L-phenylalaninamide] | 14 | 0.082 | – | – |
| CCCN([C@H](CO)CCC[C@H](CC)NC(=O)[C@H](Cc1ccccc1Cl)NC(=O)OC)S(=O)(=O)c1ccc(N)cc1 [Example F8, N-{(1S,5S)-5-[[(4-aminophenyl)sulfonyl](propyl)amino]-1-ethyl-6-hydroxyhexyl}-2-chloro-Nα-(methoxycarbonyl)-L-phenylalaninamide] | 249 | 1.45 | – | – |
| COC(=O)N[C@H](C(=O)N[C@H](CCC[C@@H](CO)N(CC(C)C)S(=O)(=O)c1ccc(CO)cc1)C(F)(F)F)C(c1ccccc1)c1ccccc1 [Example J30, N-[(1R,5S)-6-hydroxy-5-[{[4-(hydroxymethyl)phenyl]sulfonyl}(isobutyl)amino]-1-(trifluoromethyl)hexyl]-Nα-(methoxycarbonyl)-β-phenyl-L-phenylalaninamide] | 21 | 0.01 | – | – |
| CCN([C@H](CO)CCC[C@@H](NC(=O)[C@@H](NC(=O)OC)C(c1ccccc1)c1ccccc1)C(F)(F)F)S(=O)(=O)c1ccc(N)cc1 [Example H4, N-[(1R,5S)-5-[[(4-aminophenyl)sulfonyl](ethyl)amino]-6-hydroxy-1-(trifluoromethyl)hexyl]-Nα-(methoxycarbonyl)-β-phenyl-L-phenylalaninamide] | 29 | – | 0.173 | – |
| COC(=O)N[C@H](C(=O)N[C@@H](C)CCC[C@@H](CO)N(CCC(C)C)S(=O)(=O)c1ccc(N)cc1)C(c1ccccc1)c1ccccc1 [D1(R), N-{(1S,5S)-5-[[(4-aminohenyl)sulfonyl](3-methylbutyl)amino]-6-hydroxy-1-methylhexyl}-Nα-(methoxycarbonyl)-β-phenyl-L-phenylalaninamide] | – | 0.386 | – | 98 |
| COC(=O)N[C@H](C(=O)N[C@H](CCC[C@@H](CO)N(CC(C)C)S(=O)(=O)c1ccc2ncsc2c1)C1CC1)C(c1ccccc1)c1ccccc1 [Example E6, N-{(1R,5S)-5-[(1,3-benzothiazol-6-ylsulfonyl)(isobutyl)amino]-1-cyclopropyl-6-hydroxyhexyl}-Nα-(methoxycarbonyl)-β-phenyl-L-phenylalaninamide] | 27 | 0.352 | – | – |
| COC(=O)N[C@H](C(=O)N[C@H](CCC[C@@H](CO)N(CCC(C)C)S(=O)(=O)c1ccc2ncsc2c1)C1CC1)C(c1ccccc1)c1ccccc1 [Example G3, N-{(1R,5S)-5-[(1,3-benzothiazol-6-ylsulfonyl)(3-metbylbutyl)amino]-1-cyclopropyl-6-hydroxyhexyl}-Nα-(methoxycarbonyl)-β-phenyl-L-phenylalaninamide] | 44 | 0.158 | – | – |
| COC(=O)N[C@H](C(=O)N[C@H](CCC[C@@H](CO)N(C)S(=O)(=O)c1ccc(CO)cc1)C1CC1)C(c1ccccc1)c1ccccc1 [Example I6, N-{(1R,5S)-1-cyclopropyl-6-hydroxy-5-[{[4-(hydroxymethyl)phenyl]sulfonyl}(methyl)amino]hexyl}-Nα-(methoxycarbonyl)-β-phenyl-L-phenylalaninamide] | 187 | 1.03 | – | – |
